T/C data for 23 molecules are collected here from PubChem BioAssay AID330 (DTP/NCI, 2004).

The subject of the experiment is P388 leukemia ip, CD2F1 mice, survival T/C. As to the kind of experiment: NCI In Vivo Anticancer Drug Screen. Data for tumor model P388 Leukemia (intraperitoneal) in CD2F1 (CDF1) mice. As to conditions: endpoint: median survival time, higher = longer survival. In outline:
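Mice carrying the transplanted tumor received test compound or vehicle. Survival was recorded in each group, and the value is the treated-group measurement divided by that of the vehicle-treated control group.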

[1] abbreviates: dose: 25.0 mg/kg/injection, schedule: Q01DX009 (ip), vehicle: saline.
The mark [2] stands for this setting: dose: 50.0 mg/kg/injection, schedule: Q01DX009 (ip), vehicle: saline.
Where [3] appears, read: dose: 50.0 mg/kg/injection, schedule: Q01DX005 (ip), vehicle: Klucel (hydroxypropylcellulose) (HPC).
[4] abbreviates: dose: 100.0 mg/kg/injection, schedule: Q01DX005 (ip), vehicle: Klucel (hydroxypropylcellulose) (HPC).
Setting [5] is: dose: 200.0 mg/kg/injection, schedule: Q01DX005 (ip), vehicle: Klucel (hydroxypropylcellulose) (HPC).
The mark [6] stands for this setting: dose: 12.5 mg/kg/injection, schedule: Q01DX009 (ip), vehicle: saline with Tween-80.
[7] abbreviates: dose: 25.0 mg/kg/injection, schedule: Q01DX009 (ip), vehicle: saline with Tween-80.
The mark [8] stands for this setting: dose: 50.0 mg/kg/injection, schedule: Q01DX005 (ip), vehicle: saline with Tween-80.
The mark [9] stands for this setting: dose: 50.0 mg/kg/injection, schedule: Q01DX009 (ip), vehicle: saline with Tween-80.
The mark [10] stands for this setting: dose: 100.0 mg/kg/injection, schedule: Q01DX005 (ip), vehicle: saline with Tween-80.
Where [11] appears, read: dose: 100.0 mg/kg/injection, schedule: Q01DX009 (ip), vehicle: saline with Tween-80.
Setting [12] is: dose: 100.0 mg/kg/injection, schedule: Q04DX002 (ip), vehicle: Klucel (hydroxypropylcellulose) (HPC).
The mark [13] stands for this setting: dose: 200.0 mg/kg/injection, schedule: Q04DX002 (ip), vehicle: Klucel (hydroxypropylcellulose) (HPC).
Where [14] appears, read: dose: 100.0 mg/kg/injection, schedule: Q01DX001 (ip), vehicle: Klucel (hydroxypropylcellulose) (HPC).
The mark [15] stands for this setting: dose: 200.0 mg/kg/injection, schedule: Q01DX001 (ip), vehicle: Klucel (hydroxypropylcellulose) (HPC).
Setting [16] is: dose: 400.0 mg/kg/injection, schedule: Q01DX001 (ip), vehicle: Klucel (hydroxypropylcellulose) (HPC).
[17] abbreviates: dose: 12.5 mg/kg/injection, schedule: Q01DX005 (ip), vehicle: Klucel (hydroxypropylcellulose) (HPC).
Where [18] appears, read: dose: 25.0 mg/kg/injection, schedule: Q01DX005 (ip), vehicle: Klucel (hydroxypropylcellulose) (HPC).
[19] abbreviates: dose: 200.0 mg/kg/injection, schedule: Q01DX009 (ip), vehicle: saline with Tween-80.
The mark [20] stands for this setting: dose: 6.25 mg/kg/injection, schedule: Q01DX009 (ip), vehicle: saline.

Several values for one entry are separate records, joined by “and”; a condition that tells them apart may be missing. Equal values may be shown once. Toxic doses and inconclusive results are not listed.

On to `NCC(=O)c1ccc(O)c(O)c1`, for which the T/C is 100 % of control under setting [1]; 108 % of control (dose: 25.0 mg/kg/injection, schedule: Q04DX003 (ip), vehicle: saline with Tween-80); 113 % of control under setting [2]; 108 % of control (dose: 50.0 mg/kg/injection, schedule: Q04DX003 (ip), vehicle: saline with Tween-80); 104 % of control and 121 % of control (dose: 100.0 mg/kg/injection, schedule: Q04DX003 (ip), vehicle: saline with Tween-80).

In the case of `COc1c2c(cc3oc(=O)ccc13)OC(C)(C)C=C2`, the T/C reads like this: (dose: 12.0 mg/kg/injection, schedule: Q01DX005 (ip), vehicle: saline with Tween-80) 107 % of control; (dose: 24.0 mg/kg/injection, schedule: Q01DX005 (ip), vehicle: saline with Tween-80) 98 % of control; (dose: 48.0 mg/kg/injection, schedule: Q01DX005 (ip), vehicle: saline with Tween-80) 105 % of control; (dose: 96.0 mg/kg/injection, schedule: Q01DX005 (ip), vehicle: saline with Tween-80) 100 % of control.

Turning to `COc1ccc(C(C)=O)cc1CN1CCN(Cc2cc(C(C)=O)ccc2OC)CC1`, the T/C was 104 % of control under setting [3], 105 % of control under setting [4] and 99 % of control under setting [5].

For `CS(=O)(=O)OCCBr`, the T/C was 105 % of control under setting [6]; 108 % of control (dose: 25.0 mg/kg/injection, schedule: Q01DX005 (ip), vehicle: saline with Tween-80); 105 % of control under setting [7]; 110 % of control under setting [8]; 114 % of control under setting [9]; 103 % of control (dose: 100.0 mg/kg/injection, schedule: Q01DX001 (ip), vehicle: saline with Tween-80). The T/C reads like this: under setting [10], 106 % of control; under setting [11], 116 % of control.

Take `O=C1OCC[C@@H]1O`: the T/C reads like this: (dose: 60.0 mg/kg/injection, schedule: Q01DX005 (ip), vehicle: saline) 101 % of control; (dose: 120.0 mg/kg/injection, schedule: Q01DX005 (ip), vehicle: saline) 101 % of control; (dose: 240.0 mg/kg/injection, schedule: Q01DX005 (ip), vehicle: saline) 97 % of control.

In the case of `COc1ccc(C2=C(Cl)C(=O)N(c3ccccc3C)C(=O)C2(Cl)Cl)cc1`, the T/C was 101 % of control under setting [12]; 112 % of control under setting [13]; 117 % of control (dose: 400.0 mg/kg/injection, schedule: Q04DX002 (ip), vehicle: Klucel (hydroxypropylcellulose) (HPC)).

`CCOc1c(Cl)cc(Cl)cc1C(c1ccccc1S(=O)(=O)O)c1cc(Cl)cc(Cl)c1OCC`: the T/C runs as follows: (dose: 6.25 mg/kg/injection, schedule: Q01DX009 (ip), vehicle: saline with Tween-80) 100 % of control; under setting [6], 91 % of control.

As for `CC1C=C(COC(=O)Nc2ccccc2)ON1c1ccccc1` (stereo not drawn), the T/C is, setting by setting: under setting [14], 108 % of control; under setting [15], 97 % of control; under setting [16], 100 % of control.

`CC(C)C(=O)[O][Bi]([c]1ccccc1)[c]1ccccc1`: the T/C reads like this: (dose: 6.25 mg/kg/injection, schedule: Q01DX005 (ip), vehicle: Klucel (hydroxypropylcellulose) (HPC)) 108 % of control and 110 % of control; under setting [17], 101 % of control and 113 % of control; under setting [18], 105 % of control and 113 % of control.

As to `CCCCCC(C)(O)C1=NCCN1` (stereo not drawn), the T/C is 97 % of control under setting [17]; 95 % of control under setting [18]; 100 % of control and 93 % of control under setting [3].

On to `COC(=O)C=P(c1ccccc1)(c1ccccc1)c1ccccc1`, for which the T/C under setting [7] was 104 % of control, the T/C under setting [9] was 100 % of control and the T/C under setting [11] was 91 % of control.

Regarding `CNC(=O)N(C)CP(=O)(O)OC`, the T/C under setting [2] is 100 % of control; the T/C (dose: 100.0 mg/kg/injection, schedule: Q01DX009 (ip), vehicle: saline) was 98 % of control; the T/C (dose: 200.0 mg/kg/injection, schedule: Q01DX009 (ip), vehicle: saline) was 91 % of control.

Consider `CC1(C)C(=O)C(/C=C\c2ccccc2[N+](=O)[O-])Cc2ccccc21` (stereo not drawn), for which the T/C reads like this: under setting [14], 100 % of control; under setting [15], 99 % of control; under setting [16], 100 % of control.

Consider `O=[N+]([O-])c1ccc(Nc2ccccc2)c2nonc12`, for which the T/C by setting is: (dose: 60.0 mg/kg/injection, schedule: Q01DX005 (ip), vehicle: saline with Tween-80) 110 % of control; (dose: 120.0 mg/kg/injection, schedule: Q01DX005 (ip), vehicle: saline with Tween-80) 97 % of control; (dose: 240.0 mg/kg/injection, schedule: Q01DX005 (ip), vehicle: saline with Tween-80) 94 % of control.

As for `CCN(C)c1cc(=O)c2c(ccc3ccccc32)o1`, the T/C was 94 % of control under setting [9], 101 % of control under setting [11] and 95 % of control under setting [19].

Consider `O=S(=O)(O)C1CCC(O)C2[N-]CCCC21.O=S(=O)(O)C1CCC(O)C2[N-]CCCC21.[Ni+2]` (stereo not drawn), for which the T/C runs as follows: (dose: 25.0 mg/kg/injection, schedule: Q01DX001 (ip), vehicle: saline) 100 % of control; (dose: 50.0 mg/kg/injection, schedule: Q01DX001 (ip), vehicle: saline) 100 % of control; (dose: 100.0 mg/kg/injection, schedule: Q01DX001 (ip), vehicle: saline) 110 % of control.

As to `Cc1nc2n(c1C(N)=O)CCS2`, the T/C is, setting by setting: (dose: 50.0 mg/kg/injection, schedule: Q01DX001 (ip), vehicle: Klucel (hydroxypropylcellulose) (HPC)) 101 % of control; (dose: 60.0 mg/kg/injection, schedule: Q01DX005 (ip), vehicle: Klucel (hydroxypropylcellulose) (HPC)) 96 % of control; under setting [14], 106 % of control; under setting [12], 102 % of control; (dose: 120.0 mg/kg/injection, schedule: Q01DX005 (ip), vehicle: Klucel (hydroxypropylcellulose) (HPC)) 98 % of control; under setting [15], 99 % of control. Further, the T/C was 104 % of control under setting [13] and 94 % of control (dose: 240.0 mg/kg/injection, schedule: Q01DX005 (ip), vehicle: Klucel (hydroxypropylcellulose) (HPC)).

Regarding `CP1(=O)CC(=O)CCCCC(=O)C1`, the T/C was 104 % of control under setting [20]; 114 % of control (dose: 12.5 mg/kg/injection, schedule: Q01DX009 (ip), vehicle: saline); 104 % of control under setting [1]; 100 % of control under setting [11]; 98 % of control under setting [19].

As for `Cn1c2ccc(Cl)cc2c2oc(-c3nn[nH]n3)cc(=O)c21`, the T/C was 102 % of control under setting [8]; 107 % of control under setting [10]; 97 % of control (dose: 200.0 mg/kg/injection, schedule: Q01DX005 (ip), vehicle: saline with Tween-80).

For `CC(=O)CC(C)=NCC(C)N=C(C)CC(C)=O.c1cc[c]([Sn][c]2ccccc2)cc1` (stereo not drawn), the T/C (dose: 2.5 mg/kg/injection, schedule: Q01DX009 (ip), vehicle: saline) is 154 % of control; the T/C (dose: 5.0 mg/kg/injection, schedule: Q01DX009 (ip), vehicle: saline) is 158 % of control and 162 % of control; the T/C (dose: 10.0 mg/kg/injection, schedule: Q01DX009 (ip), vehicle: saline) is 185 % of control.

Take `CCCCCCOc1ccc(OCCCC[N+]2(CC)CCCCC2)cc1`: the T/C (dose: 1.56 mg/kg/injection, schedule: Q01DX009 (ip), vehicle: saline) is 105 % of control; the T/C (dose: 3.12 mg/kg/injection, schedule: Q01DX009 (ip), vehicle: saline) was 106 % of control; the T/C under setting [20] was 104 % of control.

For the molecule `CC12CC=CCC1CCC1C2CCC2(C)C(O)C(O)CC12` (stereo not drawn), the T/C by setting is: under setting [3], 101 % of control; under setting [4], 95 % of control; under setting [5], 93 % of control.

Consider `C[N+]1(C)N=C([O-])N(c2ccccc2C(F)(F)F)C1=O`, for which the T/C by setting is: under setting [6], 99 % of control; under setting [7], 99 % of control; under setting [9], 106 % of control.
